This passage reports IC50 results from patent publication US6107274A, “Piperazines as inhibitors of fructose-1,6-bisphosphatase (FBPase)” (Ontogen Corporation, priority 1999, dated 2000).

One experiment has as its target T1, fructose-1,6-bisphosphatase (FBPase) (Homo sapiens, UniProt P09467).
T1 sequence (P09467 1-338): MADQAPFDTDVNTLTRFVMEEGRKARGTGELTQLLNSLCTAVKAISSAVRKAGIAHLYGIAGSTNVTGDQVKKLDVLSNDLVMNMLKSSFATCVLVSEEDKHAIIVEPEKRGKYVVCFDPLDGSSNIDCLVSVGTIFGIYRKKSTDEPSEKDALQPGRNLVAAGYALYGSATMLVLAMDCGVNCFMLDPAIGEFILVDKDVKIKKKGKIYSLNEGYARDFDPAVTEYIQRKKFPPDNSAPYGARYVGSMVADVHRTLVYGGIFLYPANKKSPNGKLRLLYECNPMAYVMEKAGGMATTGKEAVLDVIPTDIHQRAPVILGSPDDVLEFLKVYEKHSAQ
Put plainly: FBPase inhibition assay (Taketa and Pogell): conversion of fructose-1,6-bisphosphate to fructose-6-phosphate, NADPH formation at 340 nm via coupled reactions. It is filed as biochemical. As to conditions: concentration of inhibitor giving 50% inhibition of FBPase activity; read-out: IC50. The method, then:
The above compounds are assayed utilizing the procedure described by Taketa and Pogell (J. Biol. Chem. 240:651 (1965)), wherein the conversion of fructose-1,6-bisphosphate to fructose-6-phosphate is measured by monitoring the conversion of NADP to NADPH through two coupled reactions mediated by phosphoglucose isomerase and glucose-6-phosphate dehydrogenase. The increase in NADPH concentration during the course of the reactions was determined by measuring the increase in absorption at 340 nm. The controls used in the assay were adenosine monophosphate CAMP, 1(50 1.4±0.5 μM) and fructose 2.6-bisphosphate (1(50 2.9±0.9 μM). The results obtained of the above compounds are as follows (Table 2):
In Table 2, IC50 represents the concentration of inhibitor, which would result in 50% inhibition of FBPase activity. The Roman numbers designate the compounds' numbers as depicted in Formula A for which inhibition of FBPase activity has been measured.
`N#Cc1ccc(C(C(=O)NCCc2ccc(O)cc2)N2C(=O)C3Cc4ccc(O)cc4CN3C(=O)[C@@H]2CC2CCCCC2)cc1` (some centres unmarked) [Compound I, 2-(4-Cyano-phenyl)-2-(3-cyclohexylmethyl-8-hydroxy-1,4-dioxo-1,3,4,6,11,11a-hexahydro-pyrazino[1,2-b]isoquinolin-2-yl)-N-[2-(4-hydroxy-phenyl)-ethyl]-acetamide]: the IC50 (as a rule, the midpoint of a concentration-inhibition curve) is 0.37 µM.
The same measure, in the same setting: under `N#Cc1ccc(C(C(=O)NCCc2ccc(O)cc2)N2C(=O)[C@@H]3Cc4ccccc4CN3C(=O)[C@@H]2CC2CCCCC2)cc1` (some centres unmarked) [Compound II, 2-(4-Cyano-phenyl)-2-(3-cyclohexylmethyl-1,4-dioxo-1,3,4,6,11,11a-hexahydro-pyrazino[1,2-b]isoquinolin-2-yl)-N-[2-(4-hydroxy-phenyl)-ethyl]-acetamide] stands 2.1 µM.
On the same count and under the same terms, with `N#Cc1ccc(C(C(=O)NCCc2cccc(O)c2)N2C(=O)[C@@H]3Cc4ccccc4CN3C(=O)[C@@H]2CC2CCCCC2)cc1` (some centres unmarked) [Compound III, 2-(4-Cyano-phenyl)-2-(3-cyclohexylmethyl-1,4-dioxo-1,3,4,6,11,11a-hexahydro-pyrazino[1,2-b]isoquinolin-2-yl)-N-[2-(3-hydroxy-phenyl)-ethyl]-acetamide] the figure was 8 µM.
`N#Cc1ccc(C(C(=O)NCCc2ccc(O)cc2)N2C(=O)[C@@H]3Cc4ccccc4CN3C(=O)[C@@H]2Cc2ccccc2)cc1` (some centres unmarked) [Compound IV, 2-(3-Benzyl-1,4-dioxo-1,3,4,6,11,11a-hexahydro-pyrazino[1,2-b]isoquinolin-2-yl)-2-(4-cyano-phenyl)-N-[2-(4-hydroxy-phenyl)-ethyl]-acetamide]: the IC50 amounted to 15 µM.
Still for that read-out and setting: under `CCCC(C(=O)NCCc1ccc(O)cc1)N1C(=O)[C@@H]2Cc3ccccc3CN2C(=O)[C@@H]1Cc1ccccc1` (some centres unmarked) [Compound IX, 2-(3-Benzyl-1,4-dioxo-1,3,4,6,11,11a-hexahydro-pyrazino[1,2-b]isoquinolin-2-yl)-pentanoic acid [2-(4-hydroxy-phenyl)-ethyl]-amide] stands 34 µM; under `CC(C)C[C@H]1C(=O)N2Cc3ccccc3C[C@H]2C(=O)N1C(C(=O)NCCc1ccc(O)cc1)c1ccc([N+](=O)[O-])cc1` (some centres unmarked) [Compound V, N-[2-(4-Hydroxy-phenyl)-ethyl]-2-(3-isobutyl-1,4-dioxo-1,3,4,6,11,11a-hexahydro-pyrazino[1,2-b]isoquinolin-2-yl)-2-(4-nitro-phenyl)-acetamide], 21 µM; under `O=C(NCCc1ccc(O)cc1)C(c1ccc([N+](=O)[O-])cc1)N1C(=O)[C@H](Cc2ccccc2)NC(=O)[C@@H]1CC1CCCCC1` (some centres unmarked) [Compound VI, 2-(3-Benzyl-6-cyclohexylmethyl-2,5-dioxo-piperazin-1-yl)-N-[2-(4-hydroxy-phenyl)-ethyl]-2-(4-nitro-phenyl)-acetamide], 24 µM.
Take `CC(C)C[C@H]1C(=O)N2Cc3ccccc3C[C@H]2C(=O)N1C(C(=O)NCCc1ccc(O)cc1)c1ccc(C#N)cc1` (some centres unmarked) [Compound VII, 2-(4-Cyano-phenyl)-N-[2-(4-hydroxy-phenyl)-ethyl]-2-(3-isobutyl-1,4-dioxo-1,3,4,6,11,11a-hexahydro-pyrazino[1,2-b]isoquinolin-2-yl)-acetamide]: the IC50 was determined as 30 µM.
Same read-out and setting: with `NC(=O)c1ccc(C(C(=O)NCCc2ccc(F)cc2)N2C(=O)[C@@H]3Cc4ccccc4CN3C(=O)[C@@H]2CC2CCCCC2)cc1` (some centres unmarked) [Compound VIII, 4-{(3-Cyclohexylmethyl-1,4-dioxo-1,3,4,6,11,11a-hexahydro-pyrazino[1,2-b]isoquinolin-2-yl)-[2-(4-fluoro-phenyl)-ethylcarbamoyl]-methyl}-benzamide] the figure was 32 µM; with `CCCCCC(C(=O)NCCc1ccc(O)cc1)N1C(=O)[C@@H]2Cc3ccccc3CN2C(=O)[C@@H]1Cc1ccc(O)cc1` (some centres unmarked) [Compound X, 2-[3-(4-Hydroxy-benzyl)-1,4-dioxo-1,3,4,6,11,11a-hexahydro-pyrazino[1,2-b]isoquinolin-2-yl]-heptanoic acid [2-(4-hydroxy-phenyl)-ethyl]-amide], 40 µM; with `CCCC(C(=O)NCCc1ccc(O)cc1)N1C(=O)[C@@H]2Cc3ccccc3CN2C(=O)[C@@H]1Cc1ccc(O)cc1` (some centres unmarked) [Compound XI, 2-[3-(4-Hydroxy-benzyl)-1,4-dioxo-1,3,4,6,11,11a-hexahydro-pyrazino[1,2-b]isoquinolin-2-yl]-pentanoic acid [2-(4-hydroxy-phenyl)-ethyl]-amide], 45 µM.
`CC(C)CC(C(=O)NCCc1ccc(O)cc1)N1C(=O)[C@@H]2Cc3ccccc3CN2C(=O)[C@@H]1Cc1ccc(O)cc1` (some centres unmarked) [Compound XII, 2-[3-(4-Hydroxy-benzyl)-1,4-dioxo-1,3,4,6,11,11a-hexahydro-pyrazino[1,2-b]isoquinolin-2-yl]-4-methyl-pentanoic acid [2-(4-hydroxy-phenyl)-ethyl]-amide]: the concentration for half-maximal inhibition (IC50) came to 54 µM.
On the same count and under the same terms, under `N#Cc1ccc(C(C(=O)NCc2ccc(C(=O)N3CCOCC3)cc2)N2C(=O)[C@@H]3Cc4ccccc4CN3C(=O)[C@@H]2CC2CCCCC2)cc1` (some centres unmarked) [Compound XIII, 2-(4-Cyano-phenyl)-2-(3-cyclohexylmethyl-1,4-dioxo-1,3,4,6,11,11a-hexahydro-pyrazino[1,2-b]isoquinolin-2-yl)-N-[4-(morpholine-4-carbonyl)-benzyl]-acetamide] stands 57 µM; under `O=C(O)c1ccc(CNC(=O)C(c2ccc(Oc3ccccc3)cc2)N2C(=O)[C@@H]3Cc4ccccc4CN3C(=O)[C@@H]2CC2CCCCC2)cc1` (some centres unmarked) [Compound XIV, 4-{[2-(3-Cyclohexylmethyl-1,4-dioxo-1,3,4,6,11,11a-hexahydro-pyrazino [1,2-b]isoquinolin-2-yl)-2-(4-phenoxy-phenyl)-acetylamino]-methyl}-benzoicacid], 24 µM.
As to `O=C(O)c1ccc(CNC(=O)C(c2ccc3c(c2)-c2ccccc2C3)N2C(=O)C3Cc4ccccc4CN3C(=O)C2Cc2ccccc2)cc1` (centres unmarked) [Compound XV, 4-{[2-(3-Benzyl-1,4-dioxo-1,3,4,6,11,11a-hexahydro-pyrazino[1,2-b]isoquinolin-2-yl)-2-(9H-fluoren-3-yl)-acetylamino]-methyl}-benzoic acid], the IC50 came out at 27 µM.
Turning to `O=C(O)CCCCCNC(=O)C(c1ccc(Oc2ccccc2)cc1)N1C(=O)[C@H](Cc2ccccc2)NC(=O)[C@@H]1CC1CCCCC1` (some centres unmarked) [Compound XVI, 6-[2-(3-Benzyl-6-cyclohexylmethyl-2,5-dioxo-piperazin-1-yl)-2-(4-phenoxy-phenyl)-acetylamino]-hexanoic acid], the IC50 is 34 µM.
On to `Cc1ccc(C(C(=O)NCCc2ccc(O)cc2)N2C(=O)[C@@H]3Cc4ccccc4CN3C(=O)[C@@H]2C)cc1` (some centres unmarked) [Compound XVII, N-[2-(4-Hydroxy-phenyl)-ethyl]-2-(3-methyl-1,4-dioxo-1,3,4,6,11,11a-hexahydro-pyrazino[1,2-b]isoquinolin-2-yl)-2-p-tolyl-acetamide], for which the concentration for half-maximal inhibition (IC50) came to 37 µM.
Consider `O=C(O)CCCCCNC(=O)C(c1ccc(Oc2ccccc2)cc1)N1C(=O)C(Cc2ccc([N+](=O)[O-])cc2)NC(=O)C1Cc1ccccc1` (centres unmarked) [Compound XVIII, 6-[2-[2-Benzyl-5-(4-nitro-benzyl)-3,6-dioxo-piperazin-1-yl]-2-(4-phenoxy-phenyl)-acetylamino]-hexanoic acid], for which the concentration for half-maximal inhibition (IC50) is 95 µM.

The same experiment, now with this note: controls used in the assay; read-out: 1(50 [IC50] of the assay controls.
With `Nc1ncnc2c1ncn2[C@@H]1O[C@H](COP(=O)(O)O)[C@@H](O)[C@H]1O` [adenosine monophosphate, reference compound], the concentration for half-maximal inhibition (IC50) was 1.4 ± 0.5 µM.
Still for that read-out and setting: under `O=P(O)(O)OC[C@H]1O[C@@](CO)(OP(=O)(O)O)[C@@H](O)[C@@H]1O` [fructose 2.6-bisphosphate, reference compound] stands 2.9 ± 0.9 µM.
